# Laboratory results published in ChEMBL document CHEMBL1201862, “PubChem BioAssay data set” (2004).
#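 96-well plates; 48 h exposure; 5 concentrations. Endpoints by linear interpolation between flanking doses. Not reached: highest tested concentration assigned. GI50 = concentration required for 50% inhibition of growth.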 Active and inactive are the calls of the source. Cut-off read from the data, not from the text of the source: active = GI50 up to about 1.1 µM and inactive = higher.
# Assays:
# Assay in all cases: DTP human tumour cell line panel, 48 h
# [1] = test system: MDA-MB-435
# [2] = test system: UACC-257
# [3] = test system: A498
# [4] = test system: K562
# [5] = test system: Malme-3M
# [6] = test system: SW-620
# [7] = test system: RPMI-8226
# [8] = test system: COLO 205
# [9] = test system: OVCAR-4
# [10] = test system: DU-145
# [11] = test system: SF-539
# [12] = test system: BT-549
# [13] = test system: CAKI-1
# [14] = test system: A549
# [15] = test system: HCC 2998
# [16] = test system: HL-60
# [17] = test system: IGROV-1
# [18] = test system: UACC-62
# [19] = test system: NCI/ADR-RES
# [20] = test system: SR
# [21] = test system: SK-MEL-5
# [22] = test system: OVCAR-8
# [23] = test system: NCI-H522
# [24] = test system: TK-10
# [25] = test system: NCI-H226
# [26] = test system: T47D
# [27] = test system: HCT-116
# [28] = test system: MDA-MB-231
# [29] = test system: OVCAR-3
# [30] = test system: SNB-19
# [31] = test system: MOLT-4
# [32] = test system: NCI-H460
# [33] = test system: HOP-62
# [34] = test system: LOX IMVI
# [35] = test system: Hs-578T
# [36] = test system: OVCAR-5
# [37] = test system: U-251
# [38] = test system: UO-31
# [39] = test system: SNB-75
# [40] = test system: HT-29
# [41] = test system: MDA-N
# [42] = test system: KM12
# [43] = test system: SF-295
# [44] = test system: SK-MEL-28
# [45] = test system: HCT-15
# [46] = test system: PC-3
# [47] = test system: CCRF-CEM
# [48] = test system: 786-0
# [49] = test system: RXF 393
# [50] = test system: ACHN
# [51] = test system: EKVX
# [52] = test system: SF-268
# [53] = test system: SK-OV-3
# [54] = test system: M14
# [55] = test system: MCF7
# [56] = test system: NCI-H23
# [57] = test system: SN12C
# [58] = test system: SK-MEL-2
# [59] = test system: HOP-92
smiles,measurement,setting,value
CN(C)c1nc(-c2ccccc2)c(C(=O)c2c[nH]c3ccccc23)s1,GI50,[1],2.09 µM (inactive)
same,GI50,[2],6.71 µM (inactive)
same,GI50,[3],9.98 µM (inactive)
same,GI50,[4],4.07 µM (inactive)
same,GI50,[5],11.2 µM (inactive)
same,GI50,[6],5.24 µM (inactive)
same,GI50,[7],3.16 µM (inactive)
same,GI50,[8],4.78 µM (inactive)
same,GI50,[9],17.4 µM (inactive)
same,GI50,[10],34.2 µM (inactive)
same,GI50,[11],10.7 µM (inactive)
same,GI50,[12],> 100 µM (inactive)
same,GI50,[13],9.4 µM (inactive)
same,GI50,[14],6.62 µM (inactive)
same,GI50,[15],6.55 µM (inactive)
same,GI50,[16],3.4 µM (inactive)
same,GI50,[17],3.89 µM (inactive)
same,GI50,[18],6.05 µM (inactive)
same,GI50,[19],3.06 µM (inactive)
same,GI50,[20],1.54 µM (inactive)
same,GI50,[21],8.57 µM (inactive)
same,GI50,[22],9.62 µM (inactive)
same,GI50,[23],2.76 µM (inactive)
same,GI50,[24],7.53 µM (inactive)
same,GI50,[25],> 25.7 µM (inactive)
same,GI50,[26],> 43.7 µM (inactive)
same,GI50,[27],3.88 µM (inactive)
same,GI50,[28],14.5 µM (inactive)
same,GI50,[29],5.04 µM (inactive)
same,GI50,[30],14.8 µM (inactive)
same,GI50,[31],6.62 µM (inactive)
same,GI50,[32],3.55 µM (inactive)
same,GI50,[33],15.1 µM (inactive)
same,GI50,[34],6.49 µM (inactive)
same,GI50,[35],4.75 µM (inactive)
same,GI50,[36],> 24.3 µM (inactive)
same,GI50,[37],5.66 µM (inactive)
same,GI50,[38],11.2 µM (inactive)
same,GI50,[39],2.67 µM (inactive)
same,GI50,[40],3.51 µM (inactive)
same,GI50,[41],1.93 µM (inactive)
same,GI50,[42],4.2 µM (inactive)
same,GI50,[43],3.92 µM (inactive)
same,GI50,[44],> 35.2 µM (inactive)
same,GI50,[45],3.9 µM
same,GI50,[46],> 31.3 µM (inactive)
same,GI50,[47],5.92 µM (inactive)
same,GI50,[48],8.61 µM (inactive)
same,GI50,[49],14.2 µM (inactive)
same,GI50,[50],30.5 µM (inactive)
same,GI50,[51],26 µM (inactive)
same,GI50,[52],9.2 µM (inactive)
same,GI50,[53],7.6 µM (inactive)
same,GI50,[54],4.59 µM (inactive)
same,GI50,[55],4.48 µM (inactive)
same,GI50,[56],30 µM (inactive)
same,GI50,[57],18.2 µM (inactive)
O=C(CCc1cccc(O)c1)NCCCNC(=O)CCc1cccc(O)c1,GI50,[1],> 100 µM (inactive)
same,GI50,[2],> 100 µM (inactive)
same,GI50,[3],> 100 µM (inactive)
same,GI50,[4],> 100 µM (inactive)
same,GI50,[5],> 100 µM (inactive)
same,GI50,[6],> 100 µM (inactive)
same,GI50,[7],> 100 µM (inactive)
same,GI50,[8],> 100 µM (inactive)
same,GI50,[9],> 100 µM (inactive)
same,GI50,[10],> 100 µM (inactive)
same,GI50,[11],> 100 µM (inactive)
same,GI50,[58],> 100 µM (inactive)
same,GI50,[12],> 100 µM (inactive)
same,GI50,[13],> 100 µM (inactive)
same,GI50,[14],> 100 µM (inactive)
same,GI50,[15],> 100 µM (inactive)
same,GI50,[16],< 0.01 µM (active)
same,GI50,[17],> 100 µM (inactive)
same,GI50,[18],> 100 µM (inactive)
same,GI50,[19],> 100 µM (inactive)
same,GI50,[20],> 100 µM (inactive)
same,GI50,[21],> 100 µM (inactive)
same,GI50,[22],> 100 µM (inactive)
same,GI50,[23],> 100 µM (inactive)
same,GI50,[26],> 100 µM (inactive)
same,GI50,[27],> 100 µM (inactive)
same,GI50,[28],> 100 µM (inactive)
same,GI50,[29],> 100 µM (inactive)
same,GI50,[30],> 100 µM (inactive)
same,GI50,[31],> 100 µM (inactive)
same,GI50,[32],> 100 µM (inactive)
same,GI50,[33],> 100 µM (inactive)
same,GI50,[34],> 100 µM (inactive)
same,GI50,[59],50.9 µM (inactive)
same,GI50,[35],> 100 µM (inactive)
same,GI50,[36],> 100 µM (inactive)
same,GI50,[37],> 100 µM (inactive)
same,GI50,[38],> 100 µM (inactive)
same,GI50,[40],> 100 µM (inactive)
same,GI50,[41],> 100 µM (inactive)
same,GI50,[42],> 100 µM (inactive)
same,GI50,[43],> 100 µM (inactive)
same,GI50,[44],> 100 µM (inactive)
same,GI50,[45],> 100 µM
same,GI50,[46],> 100 µM (inactive)
same,GI50,[47],> 100 µM (inactive)
same,GI50,[48],> 100 µM (inactive)
same,GI50,[49],> 100 µM (inactive)
same,GI50,[50],> 100 µM (inactive)
same,GI50,[51],> 100 µM (inactive)
same,GI50,[52],> 100 µM (inactive)
same,GI50,[53],> 100 µM (inactive)
same,GI50,[54],> 100 µM (inactive)
same,GI50,[55],> 100 µM (inactive)
same,GI50,[56],> 100 µM (inactive)
same,GI50,[57],> 100 µM (inactive)
